According to patent publication US9409952B2, “Peptide-compound cyclization method” (Chugai Seiyaku Kabushiki Kaisha, priority 2011, dated 2016):
Like-named read-outs stand apart in the source and are kept apart here. Starred links: 1 amine or outer side, 2 acyl side, 3 side chain; linkers in the order of their positions; H or OH if unused. Positions of bridges follow the written chain, without caps; N, C: chain ends. Non-standard residues stand in square brackets, D forms with d. Residues, ends and D or L forms follow the SMILES beside them. *: point of attachment. NMeF = CN[C@@H](Cc1ccccc1)C(=O)O; NMeGABA = CN(CCCC(=O)[*:2])[*:1]; NMeβAla = CN(CCC(=O)[*:2])[*:1]; NMeL = CN[C@@H](CC(C)C)C(=O)O; NMeA = CN[C@@H](C)C(=O)O; Piperidide = C1CCN(*)CC1; dNMeA = CN[C@H](C)C(=O)O; Sar = CNCC(=O)O; tBu = CC(C)(C)*

Assays:
[1] = Metabolic stability in human hepatic microsome; assay type: in vitro ADME; conditions: microsomes
[2] = PAMPA (parallel artificial membrane permeability assay); assay type: in vitro ADME; conditions: PAMPA
In short: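 Artificial membrane was 10% (w/v) egg lecithin plus 0.5% (w/v) cholesterol in dodecane on a PVDF filter. A 10 mM DMSO stock was added at 0.5% (v/v) to donor buffer (50 mM MOPSO, pH 6.5, 5.0% glycocholic acid). After 18 h at 37 °C, LC/MS or LC/UV gave donor and acceptor levels for Pe.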

[3] = pH 7.4, human hepatic microsome, NADPH(+), read-out: CL NADPH(+)
[4] = membrane permeation rate (Pe), 50 mM MOPSO buffer pH 6.5 with 5.0% glycocholic acid, 37° C., 18 hours, read-out: iPAMPA Pe

SMILES | microsomal CLint at 1 uM [1, 3] | Papp at 18 hours, 50 µM [2, 4] | microsomal CLint at 1 uM ([1]; human, pH 7.4, CL NADPH(+)) | Papp at 18 hours, 50 µM ([2]; pH 6.5)
CC(C)C[C@H]1C(=O)N[C@H](C(=O)N2CCCCC2)CC(=O)N(C)[C@H](C)C(=O)N(C)[C@@H](Cc2ccccc2)C(=O)N(C)[C@@H](CC(C)C)C(=O)N[C@@H]([C@@H](C)O)C(=O)N(C)[C@@H](CC(C)C)C(=O)N[C@@H](COC(C)(C)C)C(=O)N1C [DP-683] ([dNMeA][NMeF][NMeL]T[NMeL]S(tBu)[NMeL]D-Piperidide; lactam N-8) | 53 µL/min/mg | 32 ×10⁻⁶ cm/s |  | 
CC(C)C[C@H]1C(=O)N[C@H](C(=O)N2CCCCC2)CC(=O)N[C@H](C)C(=O)N(C)[C@@H](Cc2ccccc2)C(=O)N(C)[C@@H](CC(C)C)C(=O)N[C@@H]([C@@H](C)O)C(=O)N(C)[C@@H](CC(C)C)C(=O)N[C@@H](COC(C)(C)C)C(=O)N1C [DP-684] ([dA][NMeF][NMeL]T[NMeL]S(tBu)[NMeL]D-Piperidide; lactam N-8) | 126 µL/min/mg | 23 ×10⁻⁶ cm/s |  | 
CC(C)C[C@H]1C(=O)N(C)[C@@H](CC(C)C)C(=O)N[C@H](C(=O)N2CCCCC2)CC(=O)N(C)CCCC(=O)N(C)[C@@H](Cc2ccccc2)C(=O)N[C@@H]([C@@H](C)O)C(=O)N(C)[C@@H](C)C(=O)N[C@@H](COC(C)(C)C)C(=O)N1C [DP-685] ([NMeGABA][NMeF]T[NMeA]S(tBu)[NMeL][NMeL]D-Piperidide; lactam N-8) | 90 µL/min/mg | 28 ×10⁻⁶ cm/s |  | 
CC(C)C[C@H]1C(=O)N(C)[C@@H](CC(C)C)C(=O)N[C@H](C(=O)N2CCCCC2)CC(=O)N(C)CCCC(=O)N(C)[C@@H](Cc2ccccc2)C(=O)N[C@@H]([C@@H](C)O)C(=O)N(C)[C@@H](CC(C)C)C(=O)N[C@@H](COC(C)(C)C)C(=O)N1C [DP-686] ([NMeGABA][NMeF]T[NMeL]S(tBu)[NMeL][NMeL]D-Piperidide; lactam N-8) | 227 µL/min/mg | 36 ×10⁻⁶ cm/s |  | 
CC(C)C[C@@H]1NC(=O)[C@H](Cc2ccccc2)N(C)C(=O)[C@H]([C@@H](C)O)NC(=O)[C@H](Cc2ccccc2)N(C)C(=O)[C@H](C)N(C)C(=O)[C@H](C)N(C)C(=O)C[C@@H](C(=O)N2CCCCC2)NC(=O)[C@@H]2CCCN2C1=O [DP-687] ([NMeA][NMeA][NMeF]T[NMeF]LPD-Piperidide; lactam N-8) |  |  | 10 µL/min/mg | 10 ×10⁻⁶ cm/s
CC(C)C[C@@H]1NC(=O)[C@H](Cc2ccccc2)N(C)C(=O)[C@H]([C@@H](C)O)NC(=O)[C@H](Cc2ccccc2)N(C)C(=O)[C@H](C)N(C)C(=O)[C@H](CC(C)C)N(C)C(=O)C[C@@H](C(=O)N2CCCCC2)NC(=O)[C@@H]2CCCN2C1=O [DP-688] ([NMeL][NMeA][NMeF]T[NMeF]LPD-Piperidide; lactam N-8) |  |  | 23 µL/min/mg | 17 ×10⁻⁶ cm/s
CC(C)C[C@H]1C(=O)N(C)[C@@H](Cc2ccccc2)C(=O)N(C)[C@@H](CC(C)C)C(=O)N[C@@H]([C@@H](C)O)C(=O)N(C)CC(=O)N[C@@H](COC(C)(C)C)C(=O)N(C)[C@@H](CC(C)C)C(=O)N[C@H](C(=O)N2CCCCC2)CC(=O)N1C [DP-689] ([NMeL][NMeF][NMeL]T[Sar]S(tBu)[NMeL]D-Piperidide; lactam N-8) | 103 µL/min/mg | 44 ×10⁻⁶ cm/s |  | 
CC(C)C[C@@H]1NC(=O)[C@H]([C@@H](C)O)NC(=O)[C@H](CC(C)C)N(C)C(=O)CN(C)C(=O)[C@H](Cc2ccccc2)N(C)C(=O)[C@H](C(C)C)NC(=O)C[C@@H](C(=O)N2CCCCC2)NC(=O)[C@H](CC(C)C)N(C)C1=O [DP-690] (V[NMeF][Sar][NMeL]TL[NMeL]D-Piperidide; lactam N-8) | 217 µL/min/mg | 33 ×10⁻⁶ cm/s |  | 
CC(C)C[C@@H]1NC(=O)CN(C)C(=O)[C@H](CC(C)C)N(C)C(=O)[C@H]([C@@H](C)O)NC(=O)[C@H](CC(C)C)N(C)C(=O)[C@H](Cc2ccccc2)N(C)C(=O)[C@H](C(C)C)NC(=O)C[C@@H](C(=O)N2CCCCC2)NC1=O [DP-691] (V[NMeF][NMeL]T[NMeL][Sar]LD-Piperidide; lactam N-8) | 326 µL/min/mg | 33 ×10⁻⁶ cm/s |  | 
CC(C)C[C@@H]1NC(=O)C[C@@H](C(=O)N2CCCCC2)NC(=O)[C@H](COC(C)(C)C)NC(=O)[C@H](CC(C)C)N(C)C(=O)CN(C)C(=O)[C@H]([C@@H](C)O)NC(=O)[C@H](CC(C)C)N(C)C(=O)[C@H](Cc2ccccc2)N(C)C1=O [DP-692] (L[NMeF][NMeL]T[Sar][NMeL]S(tBu)D-Piperidide; lactam N-8) | 212 µL/min/mg | 29 ×10⁻⁶ cm/s |  | 
CC(C)C[C@H]1C(=O)N(C)[C@@H](CC(C)C)C(=O)N[C@H](C(=O)N2CCCCC2)CC(=O)N[C@@H](C(C)C)C(=O)N(C)[C@@H](Cc2ccccc2)C(=O)N[C@@H]([C@@H](C)O)C(=O)N(C)CC(=O)N[C@@H](COC(C)(C)C)C(=O)N1C [DP-693] (V[NMeF]T[Sar]S(tBu)[NMeL][NMeL]D-Piperidide; lactam N-8) | 246 µL/min/mg | 35 ×10⁻⁶ cm/s |  | 
CC(C)C[C@H]1C(=O)N(C)[C@@H](CC(C)C)C(=O)N[C@@H](COC(C)(C)C)C(=O)N[C@H](C(=O)N2CCCCC2)CC(=O)N[C@@H](C(C)C)C(=O)N(C)[C@@H](Cc2ccccc2)C(=O)N(C)CC(=O)N[C@@H]([C@@H](C)O)C(=O)N1C [DP-694] (V[NMeF][Sar]T[NMeL][NMeL]S(tBu)D-Piperidide; lactam N-8) | 170 µL/min/mg | 33 ×10⁻⁶ cm/s |  | 
CC(C)C[C@H]1C(=O)N(C)[C@@H](CC(C)C)C(=O)N[C@@H](COC(C)(C)C)C(=O)N[C@H](C(=O)N2CCCCC2)CC(=O)N(C)CCCC(=O)N(C)[C@@H](Cc2ccccc2)C(=O)N[C@@H]([C@@H](C)O)C(=O)N(C)CC(=O)N1C [DP-695] ([NMeGABA][NMeF]T[Sar][NMeL][NMeL]S(tBu)D-Piperidide; lactam N-8) | 47 µL/min/mg | 15 ×10⁻⁶ cm/s |  | 
CC(C)C[C@@H]1NC(=O)[C@H]([C@@H](C)O)NC(=O)[C@H](CC(C)C)N(C)C(=O)[C@H](Cc2ccccc2)N(C)C(=O)[C@H](C)N(C)C(=O)C[C@@H](C(=O)N2CCCCC2)NC(=O)[C@H](COC(C)(C)C)NC(=O)[C@H](CC(C)C)N(C)C1=O [DP-696] ([NMeA][NMeF][NMeL]TL[NMeL]S(tBu)D-Piperidide; lactam N-8) | 194 µL/min/mg | 37 ×10⁻⁶ cm/s |  | 
CC(C)C[C@H]1C(=O)N[C@H](C(=O)N2CCCCC2)CC(=O)N(C)[C@@H](C)C(=O)N(C)[C@@H](Cc2ccccc2)C(=O)N(C)[C@@H](CC(C)C)C(=O)N[C@@H]([C@@H](C)O)C(=O)N(C)CC(=O)N[C@@H](COC(C)(C)C)C(=O)N1C [DP-697] ([NMeA][NMeF][NMeL]T[Sar]S(tBu)[NMeL]D-Piperidide; lactam N-8) | 87 µL/min/mg | 35 ×10⁻⁶ cm/s |  | 
CC(C)C[C@@H]1NC(=O)[C@H](CC(C)C)N(C)C(=O)[C@H](COC(C)(C)C)NC(=O)[C@H](Cc2ccccc2)N(C)C(=O)[C@H](C)N(C)C(=O)C[C@@H](C(=O)N2CCCCC2)NC(=O)[C@H](CC(C)C)N(C)C(=O)[C@H]([C@@H](C)O)NC1=O [DP-698] ([NMeA][NMeF]S(tBu)[NMeL]LT[NMeL]D-Piperidide; lactam N-8) | 142 µL/min/mg | 31 ×10⁻⁶ cm/s |  | 
CC(C)C[C@H]1C(=O)N(C)[C@@H](Cc2ccccc2)C(=O)N[C@H](C(=O)N2CCCCC2)CC(=O)N(C)[C@@H](C)C(=O)N[C@@H](C)C(=O)N[C@@H]([C@@H](C)O)C(=O)N(C)[C@@H](CC(C)C)C(=O)N[C@@H](Cc2ccccc2)C(=O)N1C [DP-699] ([NMeA]AT[NMeL]F[NMeL][NMeF]D-Piperidide; lactam N-8) | 81 µL/min/mg | 29 ×10⁻⁶ cm/s |  | 
CC(C)C[C@H]1C(=O)N[C@@H]([C@@H](C)O)C(=O)N[C@@H](C)C(=O)N(C)[C@@H](Cc2ccccc2)C(=O)N[C@H](C(=O)N2CCCCC2)CC(=O)N(C)[C@@H](C)C(=O)N(C)[C@@H](CC(C)C)C(=O)N[C@@H](Cc2ccccc2)C(=O)N1C [DP-700] ([NMeA][NMeL]F[NMeL]TA[NMeF]D-Piperidide; lactam N-8) | 398 µL/min/mg | 49 ×10⁻⁶ cm/s |  | 
CC(C)C[C@@H]1NC(=O)[C@@H](C(C)C)NC(=O)C[C@@H](C(=O)N2CCCCC2)NC(=O)[C@H](Cc2ccccc2)N(C)C(=O)[C@H](CC(C)C)N(C)C(=O)[C@H](Cc2ccccc2)NC(=O)[C@H](C)N(C)C(=O)[C@H]([C@@H](C)O)NC1=O [DP-701] ([dV]LT[NMeA]F[NMeL][NMeF]D-Piperidide; lactam N-8) | 69 µL/min/mg | 31 ×10⁻⁶ cm/s |  | 
CC(C)C[C@@H]1NC(=O)[C@@H](C(C)C)NC(=O)C[C@@H](C(=O)N2CCCCC2)NC(=O)[C@H](Cc2ccccc2)NC(=O)[C@H](CC(C)C)N(C)C(=O)[C@H](Cc2ccccc2)N(C)C(=O)[C@H](C)N(C)C(=O)[C@H]([C@@H](C)O)NC1=O [DP-702] ([dV]LT[NMeA][NMeF][NMeL]FD-Piperidide; lactam N-8) | 123 µL/min/mg | 25 ×10⁻⁶ cm/s |  | 
CC(C)C[C@@H]1NC(=O)[C@H](Cc2ccccc2)N(C)C(=O)[C@@H](C(C)C)NC(=O)C[C@@H](C(=O)N2CCCCC2)NC(=O)[C@H](Cc2ccccc2)NC(=O)[C@H](CC(C)C)N(C)C(=O)[C@H]([C@@H](C)O)NC(=O)[C@H](CC(C)C)N(C)C1=O [DP-703] ([dV][NMeF]L[NMeL]T[NMeL]FD-Piperidide; lactam N-8) | 222 µL/min/mg | 34 ×10⁻⁶ cm/s |  | 
CC(C)C[C@H]1C(=O)N[C@H](C(=O)N2CCCCC2)CC(=O)N(C)CCC(=O)N[C@@H]([C@@H](C)O)C(=O)N(C)[C@@H](C)C(=O)N[C@@H](COC(C)(C)C)C(=O)N(C)[C@@H](Cc2ccccc2)C(=O)N(C)[C@@H](CC(C)C)C(=O)N1C [DP-704] ([NMeβAla]T[NMeA]S(tBu)[NMeF][NMeL][NMeL]D-Piperidide; lactam N-8) | 83 µL/min/mg | 29 ×10⁻⁶ cm/s |  | 
